Values of other authors, collected in patent US20240299301A1, “LIPID NANOPARTICLES AND METHOD FOR PREPARING SAME” (THERNA THERAPEUTICS, priority 2021, published 2024).

- pKa of the amine group: about 6.5
SMILES: CCCCC/C=C\C/C=C\CCCCCCCCC(CCCCCCCC/C=C\C/C=C\CCCCC)OC(=O)CCCN(C)C [DLin-MC3-DMA, (6Z, 9Z, 28Z, 31Z)-heptatriaconta 6,9,28,31-tetraen-19-yl 4-(dimethylamino)butanoate]
